Measurements as given in patent US7091242B2, “Beta-amino acid derivatives as integrin receptor antagonists” (Bayer Aktiengesellschaft, priority 2000, dated 2006).
Values belong to the compound of their own block, whether it stands above or below them.

Columns and labels:
[1] = tested on: Ramos cells / immobilized VCAM-1 (extracellular domains 1–3); assay: Adhesion of Ramos cells to immobilized VCAM-1 (domains 1–3); format: cell-based; settings: Homo sapiens, 1 h
Description: In Vitro Assay: Adhesion of Ramos Cells to Immobilized VCAM-1 (Domains 1–3) Preparation of VCAM-1 (extracellular domains 1–3)
Complementary DNA (cDNA) encoding 7-domain form of VCAM-1 (GenBank accession #M60335) was obtained using Rapid-ScreenTM cDNA library panels (OriGene Technologies, Inc) at Takara Gene Analysis Center (Shiga, Japan). The primers used were 5′-CCAAGGCAGAGTACGCAAAC-3′ (sense) and 5′-TGGCAGGTATTATTAAGGAG-3′ (antisense). PCR amplification of the 3-domain VCAM-1 cDNA was perform using Pfu DNA polymerase (Stratagene) with the following sets of primers: (U-VCAMd1–3) 5′-CCATATGGTACCTGATCAATTTAAAATCGAGACCACCCCAGAA-3′; (L-VCAMd1–3) 5′-CCATATAGCAATCCTAGGTCCAGGGGAGATCTCAACAGTAAA-3′. PCR cycle was 94° C. for 45 sec, 55° C. for 45 sec, 72° C. for 2 min, repeating 15 cycles. After the purification of the PCR product, the fragment was digested with KpnI-AvrII. The digested fragment was ligated into pBluescript IISK(-) (Strategene), which was linearized by digesting with KpnI-XhoI. The ligation was followed by transformation to a Dam/Dcm methylase-free E. coli strain SCS110 (Strategene) to create the donor plasmid pHH7. To direct VCAM-1 molecule into the insect cell secretory pathway, the VCAM-1 coding sequence was fused to signal peptide sequence of honeybee melittin. The resulting melittin-VCAM fusion was placed in correct orientation to the baculovirus polyhedrin promoter. Baculovirus transfer vector containing first 3-domain form VCAM-1 (pH10) was constructed by ligation of 0.9 kb fragment from AvrIIenow/BclI digests of pH7 into SalI/Klenow/BamHI digests of pMelBacB (Invitrogen). Recombinant baculovirus was generated by using Bac-N-Blue™ Transfection kit (Invitrogen) according to the manufacture's instruction. The recombinant virus was amplified by infection to High-Five™ insect cells for 5–6 days, and virus titer was determined by plaque assay.
High-Five™ insect cells were pelleted in a 225 ml conical tube by centrifugation at 1000 rpm for 5 min. After discarding the supernatant, the pellet was resuspended in 1.5×10^9 pfu (MOI=5) of high-titer virus solution, followed by incubation for 1.5 hours at room temperature. The cells were pelleted again and washed once in fresh Express Five™ serum free medium. The cells were pelleted again and finally, resuspended in 200 ml of fresh Express Five™ medium, transferred to a 1,000 ml shaker flask, and incubated in a shaker at 27° C., 130 rpm, for 48 hours before the culture supernatant was collected. […] Protein concentration was determined by using Coomassie protein assay reagent (Pierce) according to the manufacture's instruction. […]
Preparation of Fluorescence Labeled Ramos Cells: […]

SMILES: COc1cccc(C(CC(=O)Nc2ccc(NC(=O)Nc3ccccc3C)cc2)NC(=O)c2ccc(C(=O)O)cc2)c1 (stereo not shown) [Example 4, 4-{[(1-(3-methoxy-phenyl)-3-{[4-({[(2-methylphenyl)-amino]carbonyl}amino)phenyl]amino}-3-oxopropyl)amino]carbonyl}benzoic acid]
IC50 [1]: < 1 µM
melting point: 275 to 280 °C

SMILES: COc1ccc(C(CC(=O)Nc2ccc(NC(=O)Nc3ccccc3C)cc2)NC(=O)c2ccc(C(=O)O)cc2)cc1OC (stereo not shown) [Example 1, 4-{[(1-(3,4-Dimethoxyphenyl)-3-{[4-({[(2-methylphenyl)amino]carbonyl}amino)phenyl]amino}-3-oxopropyl)amino]carbonyl}benzoic acid]
IC50 [1]: < 1 µM
melting point: 166 °C

SMILES: COc1ccc(C(CC(=O)NCc2ccc(NC(=O)Nc3ccccc3C)cc2)NC(=O)c2ccc(C(=O)OC(C)(C)C)cc2)cc1OC (stereo not shown) [IX, tert-Butyl-4-{[(1-(3,4-dimethoxyphenyl)-3-{[4-({[(2-methylphenyl)amino]carbonyl}amino)benzyl]amino}-3-oxopropyl)amino]carbonyl}-benzoate]
melting point: 223 to 226 °C

SMILES: Cc1ccccc1NC(=O)Nc1ccc(CNC(=O)C2(CNC(=O)c3ccc(C(=O)O)cc3)CCCCC2)cc1 [Example 2, 4-[({[1-({[4-({[(2-methylphenyl)amino]carbonyl}-amino)benzyl]amino}carbonyl)cyclohexyl]methyl}-amino)carbonyl]benzoicacid]
IC50 [1]: > 10 µM

SMILES: COc1ccc(C(CC(=O)Nc2ccc(NC(=O)Nc3ccccc3C)cc2)NC(=O)c2ccc(C(=O)OC(C)(C)C)cc2)cc1OC (stereo not shown) [Example VII, tert-Butyl-4-{[(1-(3,4-dimethoxyphenyl)-3-{[4-({[(2-methylphenyl)-amino]carbonyl}amino)phenyl]amino}-3-oxopropyl)amino]carbonyl}benzoate]
melting point: 210 to 215 °C

Second part, the compound after the results:

melting point: 187 to 189 °C
SMILES: Cc1ccccc1NC(=O)Nc1ccc(CNC(=O)C2(CNC(=O)c3ccc(C(=O)OC(C)(C)C)cc3)CCCCC2)cc1 [VIII, tert-Butyl 4-[({[1-({[4-({[(2-methylphenyl)amino]carbonyl}amino)benzyl]amino}carbonyl)cyclohexyl]methyl}-amino)carbonyl]benzoate]

IC50 [1]: > 10 µM
melting point: 214 °C
SMILES: COc1ccc(C(CC(=O)NCc2ccc(NC(=O)Nc3ccccc3C)cc2)NC(=O)c2ccc(C(=O)O)cc2)cc1OC (stereo not shown) [Example 3, 4-{[(1-(3,4-dimethoxy-phenyl)-3-{[4-({[(2-methyl-phenyl)amino]carbonyl}amino)benzyl]amino}-3-oxopropyl)amino]carbonyl}benzoic acid]
